Several values for one entry are separate records, joined by “and”; a condition that tells them apart may be missing. Identical values can stand only once. Numbers after ± are expanded uncertainties.
settings: 364.52 K; Liquid; Closed cell (Static) method

| vapor or sublimation pressure | Compound |
| --- | --- |
| 1190.5 ± 5.3 kPa and 1189.6 ± 5.2 kPa | C/C=C\C [(Z)-2-butene] |
| 74 ± 0.9 kPa | CCC(C)O (stereo unspecified) [butan-2-ol] |
| 267.3 ± 1.4 kPa | CO [methanol] |
| 143.9 ± 1 kPa | CC(C)O [propan-2-ol] |
| 143 ± 1 kPa | CC(C)(C)O [2-methylpropan-2-ol] |

same assay, conditions: 364.53 K; Liquid; Closed cell (Static) method

| vapor or sublimation pressure [kPa] | Compound |
| --- | --- |
| 1190.7 ± 5.2 | C/C=C\C [(Z)-2-butene] |
